Here are results for seven compounds from patent US20050038113A1, “Valproic acid and derivatives for the combinatorial therapeutic treatment of human cancers and for the treatment of tumor metastasis and minimal residual disease” (G2M Cancer Drugs AG, priority 2001, published 2005).

The subject of assay [1] is DU-145 prostate cancer cells. Put plainly: SRB-assay, reduction in total cellular biomass. Format: cell-based, human. The note with it: 48 hours. On the procedure: (§1) The reduction in cellular biomass was measured by SRB-assay. For this assay cells were seeded in 96 well culture dishes at densities between 3000 and 8000 cells per well. […] Cultures were fixed with cold TCA producing a final TCA concentration of 10%. After 1 hour of incubation at 4° C. the cells were washed five times with water and air dried. Fixed cells were stained for 30 minutes with 0,4% (wt/vol) Sulforhodamine B (SRB) dissolved in 1% acetic acid and washed four times with 1% acetic acid to remove unbound dye. After air drying bound dye was solubilized with 10 mM unbuffered Tris base (pH 10,5) for 5 minutes. Optical densities were read on a Titertek Multiskan Plus spectrophotometric plate reader at 550 nm. Six test wells for each dose-response were set in parallel with 12 growth control wells per cell line. A measure of the cell population density at time 0 (To; the time at which the drug was added) was also made from 12 extra reference wells of cells fixed with TCA just prior to drug addition to the test plates. Background OD of complete medium with 5% FBS fixed and stained as described above was also determined in 12 separate wells. From the unprocessed OD data from each microtiter plate the background OD measurements (i.e. OD of complete medium plus stain and OD of cells at T0) were subtracted thus giving the reduction of cellular biomass of the cells.
(§2) The effect on the reduction in total cellular biomass was measured by SRB-assay (see example 1 for assay and read-out procedure details).
Results using MCF-7 estrogen-dependent breast cancer cells are presented in FIG. 18 and using DU-145 prostate cancer cells in FIG. 19. […] The effect on cell growth was measured by SRB-assay as described in example 1.
In general terms: The SRB assay estimates cell density from bound dye.

Assay [2] concerns PC-3 prostate cancer cells. Put plainly: SRB-assay, reduction in total cellular biomass. The following applies: 0.75 mM racemic 4-yn VPA in combination with Camptothecin, 48 hours. Format: cell-based, human. On the procedure: as §1, with “From the unprocessed OD data from each microtiter plate the background OD measurements (i.e. OD of complete medium plus stain and OD of cells at T0) were subtracted thus giving the reduction of cellular biomass of the cells.” left out
as §2

For assay [3], the system named is HCT-116 colon cancer cells. Put plainly: cell counts and propidium iodide cell cycle/apoptosis analysis. It is filed as cell-based, human. The procedure:
For FIG. 14 cells were seeded in 6 well culture dishes at 100000 cells/well. The day after, they were treated with the indicated drugs (5-FU: 2 μM 5-Fluoruracile; AD: 20 ng/ml adriamycin; IT: 3 μM irinothecan), and then cultured for further 48 hours. Cells were counted at 24 h and 48 h after treatment. All of the assays have been performed in triplicate.
For FIG. 15 cells were seeded in 6 well culture dishes at 100000 cells/well. […] (A), results of triplicate counts of viable cells. (B), cells were stained with propidium iodide after permeabilization and fixation. Results of a cell cycle analysis are presented as percentage (%) of cells in G1, S, G2+M, and sub-G1 (apoptotic cells): all of the assays have been performed in triplicate.
(A), results of triplicate counts of viable cells. (B), cells were stained with propidium iodide after permeabilization and fixation. Results of a cell cycle analysis are presented as percentage (%) of apoptotic cells: all of the assays have been performed in triplicate.
For FIG. 17 cells were seeded in 10 cm culture dishes (1 million cells/dish). […] The day after, they were treated with the following drugs: 5-FU (panel A), AD (B), or IT (C), at the concentrations as indicated for FIG. 14. Cells were analyzed at the day of treatment, 24 h, and 48 h following treatment. Upper panels, results of triplicate counts of viable cells. Lower panels, cells were stained with propidium iodide after permeabilization and fixation. Results of a cell cycle analysis are presented as percentage (%) of apoptotic cells: all of the assays have been performed in triplicate.

Assay [4] concerns HCT-15 colon cancer cells. Put plainly: SRB-assay, reduction in total cellular biomass. It is filed as cell-based, human. The note with it: 5-FU alone at doses lower than 0.5 μM, 48 hours. The procedure: as §1
This was in particular obvious when lower concentrations of 5-FU were used. E.g. […] Thus, this combinatorial activity of these two drugs must be explained via a synergistic activity of this treatment.

For assay [5], the system named is PPARδ. The following applies: cited from earlier work.
Assay [6] has as its system F9 cells. The note with it: cited from earlier work.
Assay [7] deals with primary AML blasts from AML patients. Put plainly: ex vivo differentiation, viability and apoptosis of leukemic blasts. It is filed as cell-based, human. The procedure:
Each point represents the mean of a set of data determined in triplicate (Example 15). VPA may cause synergistic therapeutic responses.
Cases were classified according to the French-American-British (FAB) classification (Bennett et al., Ann Intern Med 103, 1985). Cytogenetic analysis and RT-PCR tests were performed to rule out the presence of the APL associated fusion genes according to standard methods as described (Mandelli et al., Blood 90, 1997; Mancini et al., Br J Haematol. 91, 1995; Grimwade et al., Blood 90, 1999).

Assay [8] has as its system PML-RAR leukemia. The following applies: PML-RAR patient with multiple relapses after retinoic acid and chemotherapy; cited from earlier work.
Where [9] appears, read: drug alone at the concentrations used (5-FU 2 μM; AD 20 ng/ml; IT 3 μM).

As to `C#CCC(CCC)C(=O)O` (racemic) [4-yn VPA, 2-n-Propyl-4-pentynoic acid], the “reduction of cellular biomass” value in assay [1] (0.75 mM racemic 4-yn VPA in combination with cis Platinum lower than 10 μM) is on record as “synergistic reduction of cellular biomass”. Besides, the “reduction in cellular biomass” value in assay [2] was “at least additive therapeutic effect”.

With `O=c1[nH]cc(F)c(=O)[nH]1` [5-FU, 5-Fluorouracil], the apoptosis result in assay [3] (setting [9]) was “did not induce apoptosis significantly”; in assay [3] (high concentrations of 5-FU alone (not shown)), “efficiently induce apoptosis”; in assay [3] (lower doses of 5-FU alone) it was “only a modest effect”. Besides, in assay [3] (setting [9]), the growth rate result is on record as “only moderately affected the growth rate”. Besides, in assay [3] (lower doses of 5-FU alone, due to reduction in cycling cells), the cell number result is “reduction in cell number”. In addition, the cellular biomass result in assay [4] is “increase of the cellular biomass”.

For `CC(/C=C/C(=O)NO)=C\[C@@H](C)C(=O)c1ccc(N(C)C)cc1` [TSA], the PPARδ activation result in assay [5] is on record as “activates PPARδ”. Besides, the F9 cell differentiation entry in assay [6] is “induces the same type of F9 cell differentiation as VPA”. Further, the “synergistic activities in combination (FIGS. 21 and 25)” value in assay [7] (TSA +/- RA, compared to the extent VPA does) is “does not display this synergistic activities”. In addition, the “apoptosis of AML blasts (FACS, propidium-iodide)” value in assay [7] (single agent, 4 cases tested) is listed as “not TSA, was found effective in inducing apoptosis”.

Regarding `COc1cccc2c1C(=O)c1c(O)c3c(c(O)c1C2=O)C[C@@](O)(C(=O)CO)C[C@@H]3O[C@H]1C[C@H](N)[C@H](O)[C@H](C)O1` [adriamicine], in assay [3] (setting [9]), the apoptosis entry is recorded as “did not induce apoptosis significantly” and the growth rate result is recorded as “only moderately affected the growth rate”.

Regarding `N.N.[Cl][Pt][Cl]` [cisPlatinum], the cellular biomass result in assay [1] (cisPlatinum alone at concentrations lower than 10 μM) and in assay [1] (cisPlatinum alone at doses lower than 1 μM) was “no decrease of the cellular biomass” each time.

Consider `CCc1c2c(nc3ccc(OC(=O)N4CCC(N5CCCCC5)CC4)cc13)-c1cc3c(c(=O)n1C2)COC(=O)[C@]3(O)CC` [irinothecan], for which, in assay [3] (setting [9]), the apoptosis result is recorded as “did not induce apoptosis significantly” and the growth rate result was “only moderately affected the growth rate”.

As to phenylbutyrate, the clinical response entry in assay [8] is “complete remission of the leukemia”.
